This is an account of results in paper PMC2974656, “Selective killing of human immunodeficiency virus infected cells by non-nucleoside reverse transcriptase inhibitor-induced activation of HIV protease” (Retrovirology, 2010).

The nature of data set [1]: Cytotoxicity on uninfected control cells, EGFP fluorescence per well. In kind it is cell-based. As to conditions: human, MT4-CMV-EGFP control cells (uninfected); 4 days; mean ± SD; tested up to 10 μM; read-out: Cytotoxicity on MT4-CMV-EGFP control cells CC50. Here is the method:
(§1) The cytotoxicity of inhibitors was determined in parallel on MT4-CMV-EGFP control cells and on MT4-LTR-EGFP-IIIB virus producing cells, respectively.

The subject of data set [2] is MT4-LTR-EGFP-IIIB HIV-1 producing cells. Description: in vitro. In kind it is cell-based. As to conditions: for Cytotoxicity on MT4-LTR-EGFP-IIIB cells, in words: summary of Table 1; for CC50: 4 days. Here is the method:
as §1

The nature of a further data set: in vitro. In kind it is cell-based. The note with it: human, 4 days. Here is the method:
as §1

In data set [3] the test system is intracellular Gag processing by HIV PR. Format: cell-based, HIV-1. The protocol: In previous studies, high concentrations of NNRTI (5 μM) were required to observe NNRTI mediated activation of intracellular HIV PR activity. […]. Towards this end, we developed a biochemical assay for gel independent quantitation of intracellular Gag processing by HIV PR in the context of a virus producing cell. We had previously shown that additional protein domains, consisting of small epitope tags or even the 27 kDa green fluorescent protein (EGFP), can be inserted between the MA and CA domains of the Gag and Gag-Pol polyproteins without affecting polyprotein production or processing by HIV PR [36]. Based on this, we designed a HIV reporter construct which contained a small N-terminal fragment ('alpha peptide') of Escherichia coli beta-galactosidase (β-Gal), flanked by two HIV PR recognition sites, between the MA and CA coding sequences of Gag (Figure 1A). […] This so called alpha complementation principle can be exploited for use in mammalian cells and has been employed for the establishment of various cell based biochemical assay systems. We reasoned that embedding of the small alpha peptide within the multi-domain polyproteins Gag or Gag-Pol, respectively, should impair its productive association with the omega subunit, while proteolytic release of the alpha peptide from the polyprotein by PR would allow the formation of enzymatically active β-Gal. This should allow us to monitor intracellular Gag and Gag-Pol processing through increased β-Gal activity.
Reconstituted β-Gal activity in cell lysates was measured by cleavage of the chromogenic substrate CPRG [42] as described in Methods.
The activity of β-Gal in cell lysates from transfected 293T cells was measured by enzymatic cleavage of the chromogenic β-Gal substrate chlorphenolred-β-D-galactopyranoside (CPRG, Roche; [42]). At 44 h post transfection, cells were briefly rinsed with PBS and suspended in reporter gene assay lysis buffer (Roche, 600 μl per 6-well dish) supplemented with a protease inhibitor mix (Roche). Cell suspensions were incubated for 10 min at room temperature and cell debris was subsequently removed by brief centrifugation. Five μl of supernatant were diluted in 96-well plates with 95 μl CPRG reaction buffer (50 mM potassium phosphate, pH 7.5, 1 mM MgCl2) and pre-warmed for 5 min to 37°C. 100 μl of pre-warmed reaction mix (100 μM CPRG in CPRG reaction buffer supplemented with protease inhibitor cocktail and 40 μM β-mercaptoethanol) were added and β-Gal mediated cleavage of CPRG was monitored by recording absorption at 592 nm every 2 min for 20 min at 37°C using a TECAN Safire multi-well reader. OD592 values were plotted over time and relative reaction rates (OD592/min) were determined from the initial linear velocities.

A further data set relates to HIV-1IIIB. Kind of data set: Direct antiviral activity: MT4-LTR-EGFP cells infected with HIV-1IIIB, EGFP fluorescence. In kind it is cell-based. As to conditions: read-out: Inhibition of HIV replication in vitro EC50. Here is the method:
After 3 days of incubation, infected cells were quantified by determination of total EGFP fluorescence per well based on microscopy and subsequent image analysis. Threshold values were determined from the average pixel value plus 6 standard deviations from the uninfected control wells, and the median threshold from all control wells on a plate was defined as baseline GFP expression. Intensity values for the sample wells were then determined by subtracting the background threshold from each pixel value obtained from the image of the respective well and calculating the sum of net pixel intensities. Percent inhibition was calculated as 100 * (1 - (Sample - CC)/(VC - CC)).

On the set-up of data set [4]: method as in PMID 12545140. The note with it: under therapy; cited from earlier work.
Data set [5] deals with MT4-CMV-EGFP control cells. Description: Cytotoxicity on uninfected control cells, EGFP fluorescence per well. Format: cell-based. Here is the method: as §1
A further data set addresses T1, RT heterodimer (p66/p51) (Human immunodeficiency virus type 1 group M subtype B, UniProt P04585).
T1 construct: the bait protein (p66) was fused to the C-terminus of a chimeric receptor; expressed in transfected cells; host or cells: mammalian cells
Description: cell-based. In kind it is cell-based, HIV-1. The source says: RT heterodimer formation was monitored using a mammalian two hybrid system described previously. In brief, the bait protein (p66) was fused to the C-terminus of a chimeric receptor consisting of the extracellular part of the erythropoietin receptor and the intracellular part of the leptin receptor incapable of STAT activation. The prey protein (p51) was coupled to a part of the cytoplasmic tail of the gp130 chain carrying several STAT3 recruitment domains. Interaction of bait and prey protein leads to functional complementation of STAT3 activity, which results in Epo dependent induction of a STAT3-responsive luciferase reporter gene. Enhancement of this interaction by the addition of compounds can thus be measured by an increase of luciferase expression.

Data set [6] relates to HXB2D-EGFP infected CD4 positive cells isolated from PBMC. Description: Killing of HIV-1 infected CD4 positive primary T-cells, flow cytometry. The note with it: 1 μM NNRTI + 1 μM AZT, 3 days. Format: cell-based, human. The protocol:
To validate our results obtained for the persistently infected cell line in a more relevant cell system we performed additional infection experiments using human peripheral blood mononuclear cells (PBMC). […]. PBMC isolated from healthy blood donors were activated and infected with a replication competent HIV-1 derivative which carries a gfp gene in the nef locus. The co-receptor antagonist AMD-3100 was added at day 2 post infection to prevent further viral spread. This was done to distinguish the proposed killing of infected cells from the inhibitory effect of NNRTIs and PIs on virus replication. […]. […] Similar results were obtained upon infection of CD4-positive primary T-cells with an EGFP-expressing virus (Figure 4B).
Figure 4 NNRTI induced selective killing of HIV-1 infected primary human cells. (A) PBMC prepared from buffy coats of healthy blood donors were infected with HIV-1AGFP. At day 2 post infection, 100 ng/ml AMD-3100 was added to all samples to prevent further infection. […] After further incubation for 5 days, cells were harvested and analyzed for the proportion of infected GFP expressing cells by flow cytometry. […] P-values were calculated using a two-tailed unpaired t-test (GraphPad Prism). Values were normalized to the respective solvent control. (B) CD4 positive cells isolated from PBMC were infected with HXB2D-EGFP. […] After further incubation for 3 days, cells were harvested and analyzed for the proportion of infected cells by flow cytometry. […] Asterisks: non-infected controls.
Peripheral blood mononuclear cells (PBMC) were purified from buffy coats of HIV-negative blood donors, grown in supplemented RPMI 1640 and stimulated by the addition of 10 ng/ml IL-2 (Biomol) and 2 μg/ml PHA (Sigma). PBMC pooled from two donors each were used for infection. […] For infection of PBMC, the HIV-1 derivatives HIV-1-AGFP [49] carrying the gfp gene fused to the codon for amino acid 16 of Nef in pNL4-3, or HXB2D-EGFP [60], which carries an egfp gene in the place of the viral nef open reading frame, were used as indicated. […]
Background: A flow cytometer gives signals particle by particle.

A further data set deals with HIV-1AGFP infected PBMC. Kind of data set: Killing of HIV-1 infected PBMC, proportion of GFP expressing cells by flow cytometry. The note with it: 1 μM NNRTI, added day 2 post infection with AMD-3100, 5 days. In kind it is cell-based, human.
Data set [7] deals with Gag processing in MT-4-IIIB cells. Kind of data set: Immunoblot of Gag processing in chronically infected MT-4 cells. In kind it is cell-based, HIV-1. The note with it: 1 μM, day 2 post addition. Background: In western blotting, separated proteins are transferred to a membrane and probed.
In data set [8] the test system is intracellular Gag processing by HIV PR. In kind it is cell-based, HIV-1. The note with it: 2 μM LPV, 48 h post transfection; DMSO control 0.109 min^-1.
A further data set deals with Gag processing by HIV PR. Description: Immunoblot analysis of Gag processing in transfected 293T cells. In kind it is cell-based, HIV-1. As to conditions: 2 μM LPV. Here is the method: 293T cells were seeded in 6-well plates and transfected with the indicated constructs using FuGene6 (Roche) according to the manufacturer's instructions. Cell lysates and tissue culture supernatants were harvested at 44-48 h post transfection. Virus was purified by ultracentrifugation through a 20% (w/w) sucrose cushion. Cell lysates, tissue culture supernatants or pelleted viral particles were separated by SDS-PAGE (17.5% acrylamide; acrylamide:bisacrylamide 200:1). Proteins were transferred to nitrocellulose by semi-dry blotting and detected using polyclonal antisera raised against recombinant HIV-1 CA or MA, or a commercial antiserum against β-Gal (Abcam, ab616), respectively.

The mark [9] stands for this setting: no DRV, mean ± SD, tested up to 10 μM, read-out: Cytotoxicity on MT4-LTR-EGFP-IIIB HIV-1 producing cells CC50.
Setting [10] is: 293T cells, 44 h post transfection.

Molecules are shown by their SMILES. Read-outs that look alike come from different tables or passages of the source.

Description for HIV-1AGFP infected PBMC: PBMC isolated from healthy blood donors were activated and infected with a replication competent HIV-1 derivative which carries a gfp gene in the nef locus [49]. The co-receptor antagonist AMD-3100 was added at day 2 post infection to prevent further viral spread.

As to `O=C1Nc2ccc(Cl)cc2[C@@](C#CC2CC2)(C(F)(F)F)O1` [EFV, efavirenz], the CC50 (in general, the concentration at which the toxic effect on the cells reaches its halfway point) at 4 days in [1] was greater than 10 µM; in “in vitro” (setting [9]) it was 1710 ± 430 nM; in “in vitro” (CC50 on virus producing cells in the absence of DRV, one representative experiment (Fig. 3C), 4 parameter fit), 2440 nM. In addition, the “Cytotoxicity on MT4-LTR-EGFP-IIIB cells, in words” value in [2] was “less cytotoxic”. Further, the “Gag processing or β-Gal activity, pCHIV.MAα variant with D25A mutation (PR-)” value in [3] (5 μM EFV) is given as “no increase”. In [3] (5 μM EFV), the “β-Gal activity, pCHIV.MAα 2PR (linked PR dimer)” value is recorded as “No effect”. Further, the “β-Gal activity, pCHIV.MAα” value in data set [3] (5 μM EFV, equal amounts of pCHIV.MAα and pCMVω) is “significant increase”. For the same compound, the “Concentration required to achieve the maximal effect on β-Gal activity” value in data set [3] (setting [10]) is recorded as ~ 1 μM. Also, the EC50 with HIV-1IIIB (Human immunodeficiency virus 1, 72 h) came out at 1.9 ± 0.9 nM. Moreover, the Peak serum levels result in [4] is recorded as “micromolar range”.
With `Cc1cc(S(N)(=O)=O)ccc1NC(=O)COc1ccc(Cl)cc1C(=O)c1cc(Cl)cc(C#N)c1` [GW-678248], the CC50 in [5] is greater than 10 µM; in data set [2] (setting [9]) it was 630 ± 290 nM; in data set [2] (read-out: CC50 on virus producing cells in the absence of DRV, one representative experiment (Fig. 3C), 4 parameter fit), 350 nM. Further, the EC50 amounted to 3.2 nM at RT heterodimer (p66/p51) (concentration enhancing luciferase signal by 50% over control, read-out: Enhancement of RT-Dimerization EC50) and 0.84 ± 0.25 nM in the data set with HIV-1IIIB (MT4-LTR-EGFP cells, HIV-1IIIB MOI 0.01, 3 days, mean ± SD of three or more measurements). The “Promotion of RT dimerization, in words” value at RT heterodimer (p66/p51) (summary of Table 1) is “low nM range”. Also, in data set [6], the “Cytotoxicity on infected CD4-positive primary T-cells” value is “PR dependent cytotoxicity”. Further, the “Cytotoxicity on MT4-LTR-EGFP-IIIB cells, in words” value in data set [2] is on record as “submicromolar range”. For the same compound, the “Concentration showing strong β-Gal activity enhancement” value in data set [3] (setting [10]) is on record as ~ 250 nM. In addition, in the data set on HIV-1AGFP infected PBMC, the “Infected primary cells (PBMC) as compared with the control” value is “significant reduction”. Further, in [7], the “NNRTI mediated enhancement of Gag processing in virus producing cells” value is “decreased ratio of Gag to intermediate and fully mature processing products”.
As to `Cc1cccc(C)c1OCC(=O)N[C@@H](Cc1ccccc1)[C@@H](O)C[C@H](Cc1ccccc1)NC(=O)[C@H](C(C)C)N1CCCNC1=O` [LPV, lopinavir], the “Relative rate of CPRG cleavage” value in [8] amounted to 0.054 min⁻¹. In addition, in [3] (2 μM LPV, result in words), the “β-Gal activity in the cell lysates” value is “reduced, but did not abolish”. In addition, the “Gagα processing as determined by immunoblot” value with Gag processing by HIV PR is listed as “nearly completely blocked”.
